This is an account of results in patent publication US5994342A, “3-(substituted methyl)-4-oxa-1-azabicyclo[3.2.0]heptan-7-one derivatives useful as antitumor agents” (priority 1994, dated 1999).

One series concerns KB cells. Nature of the series: In vitro KB cell cytotoxicity assay (crystal violet). Type of series: cell-based. As to conditions: Homo sapiens, 72 h, 3 days culture, read-out: KB Cell Cytotoxicity TD50. The method, boiled down:
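Cells seeded at 3×10^4 cells/ml in Eagle's MEM with 10% calf serum, cultured one day, then exposed to compound for three days at 37° C, 5% CO2. Glutaraldehyde-fixed cells stained with 0.05% crystal violet, eluted and read at OD540; TD50 from linear regression of log-logit plot of growth inhibition.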

A further series deals with Sarcoma 180. Nature of the series: In vivo antitumor activity against Sarcoma 180. The settings on record: i.p., days 1, 5 and 9. Details: species or system male ICR mice. The procedure: In Vivo Antitumor Activity Against Sarcoma 180
The compounds of general formula (I) were tested in vivo against Sarcoma 180 xenografted tumor to mice as illustrated herein after.
Sarcoma 180, 5×10^6 cells were inoculated by S.C. to male ICR mice (6 week old) on day 0. Drugs were administered on days 1, 5 and 9. Mice were killed and tumor weight was measured on day 12 after transplantation. The percentage inhibition of tumor growth was calculated from the mean tumor weight of the treated group compared with that of the control group. Number of mice used in each group was between 6 to 7.

Setting [1] is: Mus musculus, Sarcoma-180, ip, 288 h, 12.5 mg/kg/day, tumor s.c., tumor weight day 12, read-out: % Inhibition of tumor growth.
[2] abbreviates: Mus musculus, Sarcoma-180, ip, 288 h, 25 mg/kg/day, tumor s.c., tumor weight day 12, read-out: % Inhibition of tumor growth.
[3] abbreviates: Mus musculus, Sarcoma-180, ip, 288 h, 50 mg/kg/day, tumor s.c., tumor weight day 12, read-out: % Inhibition of tumor growth.
The mark [4] stands for this setting: Mus musculus, Sarcoma-180, ip, 288 h, 100 mg/kg/day, tumor s.c., tumor weight day 12, read-out: % Inhibition of tumor growth.
Where [5] appears, read: Mus musculus, Sarcoma-180, ip, 288 h, 6.3 mg/kg/day, tumor s.c., tumor weight day 12, read-out: % Inhibition of tumor growth.

Molecules are shown by their SMILES. In brackets after ≈: the same amount, converted by molar mass. Where a name gives a salt, the structure may show the parent alone.

Take `Cl.NCC(=O)NCC(=O)OC[C@H]1CN2C(=O)C[C@@H]2O1` (racemic) [Example 40B, (3RS,5SR)-3-[N-(Aminoacetyl)aminoacetyl]oxymethyl-4-oxa-1-azabicyclo[3.2.0]heptan-7-one hydrochloride]: in the series with KB cells, the IC50 worked out at 0.636 µg/mL. Moreover, the “Mortality in 12 days” value in the series with Sarcoma 180 (12.5 mg/kg/day), with Sarcoma 180 (25 mg/kg/day) and with Sarcoma 180 (50 mg/kg/day) was 0/6 in each case. Besides, the inhibition in vivo at 12.5 mg/kg in the series on Sarcoma 180 (setting [1]) worked out at 48.3%. Besides, the inhibition in vivo at 25 mg/kg in the series on Sarcoma 180 (setting [2]) is 54%. In the series on Sarcoma 180 (setting [3]), the inhibition in vivo at 50 mg/kg was determined as 72%.
Consider `CC(C)[C@@H](N)C(=O)OC[C@H]1CN2C(=O)C[C@@H]2O1.Cl` (mixture of isomers) [Example 60B, (3RS,5SR)-3-(D-2-Amino-3-methylbutyryl)oxymethyl-4-oxa-1-azabicyclo[3.2.0]heptan-7-one hydrochloride], for which the IC50 with KB cells is 0.903 µg/mL. The “Mortality in 12 days” value with Sarcoma 180 (50 mg/kg/day) and in the series on Sarcoma 180 (100 mg/kg/day) was 0/6 in each case. Also, the inhibition in vivo at 50 mg/kg in the series with Sarcoma 180 (setting [3]) stood at 49.8%. For the same compound, in the series on Sarcoma 180 (setting [4]), the inhibition in vivo at 100 mg/kg was 77.7%.
As to `CC(=O)NCC(=O)NC[C@@H]1CN2C(=O)C[C@H]2O1` (relative stereo) [Example 44, (3RS,5RS)-3-N-(N-Acetylaminoacetyl)aminomethyl-4-oxa-1-azabicyclo[3.2.0]heptan-7-one], in the series on KB cells, the IC50 was determined as 0.341 µg/mL (≈ 1.41 µM). Also, the “Mortality in 12 days” value with Sarcoma 180 (12.5 mg/kg/day) was 0/6; with Sarcoma 180 (25 mg/kg/day), 4/6. Besides, the inhibition in vivo at 12.5 mg/kg with Sarcoma 180 (setting [1]) stood at 45.9%. Also, the inhibition in vivo at 25 mg/kg in the series with Sarcoma 180 (setting [2]) is 85.3%.
For the compound `CC(=O)N[C@@H](CO)C(=O)OCC1CN2C(=O)CC2O1` (stereo partly drawn) [Example 75A, (3RS,5SR)-3-(L-2-Acetamido-3-hydroxypropanoyl)oxymethyl-4-oxa-1-azabicyclo[3.20]heptan-7-one], in the series with KB cells, the IC50 came out at 1.98 µg/mL (≈ 7.27 µM). The “Mortality in 12 days” value in the series with Sarcoma 180 (12.5 mg/kg/day) and in the series with Sarcoma 180 (25 mg/kg/day) was 0/6 in each case. Besides, the inhibition in vivo at 12.5 mg/kg with Sarcoma 180 (setting [1]) came out at 42.8%. The inhibition in vivo at 25 mg/kg in the series on Sarcoma 180 (setting [2]) stood at 61.9%.
Regarding `CS(=O)(=O)NC[C@H]1CN2C(=O)C[C@H]2O1` (racemic) [Example 35, (3RS,5RS)-3-(N-Methanesulfonylaminomethyl)-4-oxa-1-azabicyclo[3.2.0]heptan-7-one], the IC50 in the series on KB cells is 0.198 µg/mL (≈ 0.899 µM). In the series on Sarcoma 180 (100 mg/kg/day), the “Mortality in 12 days” value is 1/6. For the same compound, the inhibition in vivo at 100 mg/kg in the series on Sarcoma 180 (setting [4]) came to 64.6%.
The corresponding values for `O=C(NC[C@@H]1CN2C(=O)C[C@H]2O1)c1ccccc1` (racemic) [Example 23, (3RS,5RS)-3-(N-Benzoylaminomethyl)-4-oxa-1-azabicyclo[3.2.0]heptan-7-one] are 0.088 µg/mL (≈ 0.357 µM), 0/6 and 27.8%.
With `N[C@@H](Cc1ccccc1)C(=O)NCC1CN2C(=O)CC2O1` (stereo partly drawn) [Example 63B, (3RS,5RS)-3-N-(L-2-Amino-3-phenylpropanoyl)aminomethyl-4-oxa-1-azabicyclo[3.2.0]heptan-7-one hydrochloride], the IC50 with KB cells is 0.573 µg/mL. Also, the “Mortality in 12 days” value in the series with Sarcoma 180 (50 mg/kg/day) and in the series with Sarcoma 180 (100 mg/kg/day) was 0/6 in each case. Besides, in the series with Sarcoma 180 (setting [3]), the inhibition in vivo at 50 mg/kg was 50.3%. Also, the inhibition in vivo at 100 mg/kg in the series with Sarcoma 180 (setting [4]) is 57.6%.
On to `C[C@@H](N)C(=O)NCC1CN2C(=O)CC2O1` (stereo partly drawn) [Example 53B, (3RS,5RS)-3-N-(D-2-Aminopropanoyl)aminomethyl-4-oxa-1-azabicyclo[3.2.0]heptan-7-one hydrochloride], for which, in the series on KB cells, the IC50 is 0.316 µg/mL. In addition, the “Mortality in 12 days” value with Sarcoma 180 (6.3 mg/kg/day) is 0/6; in the series with Sarcoma 180 (12.5 mg/kg/day), 0/6; in the series on Sarcoma 180 (25 mg/kg/day) it was 1/6. In the series with Sarcoma 180 (setting [5]), the inhibition in vivo at 6.3 mg/kg is 47.3%. In addition, the inhibition in vivo at 12.5 mg/kg in the series with Sarcoma 180 (setting [1]) amounted to 61.9%. For the same compound, the inhibition in vivo at 25 mg/kg in the series on Sarcoma 180 (setting [2]) was found to be 73.8%.
With `CC(C)[C@H](NC(=O)CN)C(=O)OCC1CN2C(=O)CC2O1` (stereo partly drawn) [Example 55B, (3RS,5SR)-3-[L-2-(N-Aminoacetyl)amino-3-methylbutyryl]oxymethyl-4-oxa-1-azabicyclo[3.2.0]heptan-7-one hydrochloride], in the series on KB cells, the IC50 was 0.522 µg/mL. In addition, the “Mortality in 12 days” value in the series on Sarcoma 180 (25 mg/kg/day) and with Sarcoma 180 (50 mg/kg/day) was 0/6 throughout. For the same compound, in the series on Sarcoma 180 (setting [2]), the inhibition in vivo at 25 mg/kg was determined as 47.6%. Further, in the series on Sarcoma 180 (setting [3]), the inhibition in vivo at 50 mg/kg was 74.4%.
In the case of `N[C@@H](CC(=O)O)C(=O)OC[C@H]1CN2C(=O)C[C@@H]2O1` (mixture of isomers) [Example 66B, (3RS,5SR)-3-(L-2-Amino-3-carboxypropanoyl)oxymethyl-4-oxa-1-azabicyclo[3.2.0]heptan-7-one], in the series with KB cells, the IC50 was found to be 0.204 µg/mL. The “Mortality in 12 days” value in the series on Sarcoma 180 (6.3 mg/kg/day), with Sarcoma 180 (12.5 mg/kg/day) and in the series with Sarcoma 180 (25 mg/kg/day) was 0/6 in each case. Besides, the inhibition in vivo at 6.3 mg/kg in the series on Sarcoma 180 (setting [5]) worked out at 33.7%. The inhibition in vivo at 12.5 mg/kg with Sarcoma 180 (setting [1]) came out at 53.2%. Moreover, the inhibition in vivo at 25 mg/kg in the series with Sarcoma 180 (setting [2]) came to 62.9%.
Regarding `CC(C)[C@H](N)C(=O)OC[C@H]1CN2C(=O)C[C@@H]2O1.Cl` (mixture of isomers) [Example 54B, (3RS,5SR)-3-(L-2-Amino-3-methylbutyryl)oxymethyl-4-oxa-1-azabicyclo[3.2.0]heptan-7-one hydrochloride], the IC50 in the series with KB cells was determined as 1.9 µg/mL. The “Mortality in 12 days” value in the series on Sarcoma 180 (25 mg/kg/day), in the series on Sarcoma 180 (50 mg/kg/day) and in the series with Sarcoma 180 (100 mg/kg/day) was 0/6 in each case. For the same compound, in the series on Sarcoma 180 (setting [2]), the inhibition in vivo at 25 mg/kg worked out at 28.5%. Also, in the series on Sarcoma 180 (setting [3]), the inhibition in vivo at 50 mg/kg came out at 53.8%. In the series on Sarcoma 180 (setting [4]), the inhibition in vivo at 100 mg/kg came out at 84.3%.
`O=C(NC[C@@H]1CN2C(=O)C[C@H]2O1)C1CCCCC1` (racemic) [Example 6, (3RS,5RS)-3-(N-Cyclohexylcarbonylaminomethyl)-4-oxa-1-azabicyclo[3.2.0]heptan-7-one]: the IC50 in the series with KB cells came out at 0.073 µg/mL (≈ 0.289 µM). For the same compound, the “Mortality in 12 days” value in the series on Sarcoma 180 (20 mg/kg/day), with Sarcoma 180 (40 mg/kg/day) and with Sarcoma 180 (80 mg/kg/day) was 0/6 in each case. For the same compound, the inhibition in vivo at 20 mg/kg in the series with Sarcoma 180 (Mus musculus, Sarcoma-180, ip, 288 h, 20 mg/kg/day, tumor s.c., tumor weight day 12, read-out: % Inhibition of tumor growth) was found to be 32.1%. Besides, in the series with Sarcoma 180 (Mus musculus, Sarcoma-180, ip, 288 h, 40 mg/kg/day, tumor s.c., tumor weight day 12, read-out: % Inhibition of tumor growth), the inhibition in vivo at 40 mg/kg came to 35.7%. Also, the inhibition in vivo at 80 mg/kg in the series with Sarcoma 180 (Mus musculus, Sarcoma-180, ip, 288 h, 80 mg/kg/day, tumor s.c., tumor weight day 12, read-out: % Inhibition of tumor growth) stood at 43.3%.
Take `C[C@H](N)C(=O)OC[C@H]1CN2C(=O)C[C@@H]2O1.Cl` (mixture of isomers) [Example 48B, (3RS,5SR)-3-(L-2-Aminopropanoyl)oxymethyl-4-oxa-1-azabicyclo[3.2.0]heptan-7-one hydrochloride]: the IC50 with KB cells was 0.878 µg/mL. Also, the results for the “Mortality in 12 days” value with Sarcoma 180 (12.5 mg/kg/day), with Sarcoma 180 (25 mg/kg/day) and in the series on Sarcoma 180 (50 mg/kg/day) were 0/6, 0/6 and 2/6, respectively. Moreover, in the series on Sarcoma 180 (setting [1]), the inhibition in vivo at 12.5 mg/kg was 44.9%. In the series on Sarcoma 180 (setting [2]), the inhibition in vivo at 25 mg/kg worked out at 66.8%. Moreover, the inhibition in vivo at 50 mg/kg with Sarcoma 180 (setting [3]) came out at 77.3%.
As for `O=C(NCCCC[C@H](NC(=O)OCc1ccccc1)C(=O)OCC1CN2C(=O)CC2O1)OCc1ccccc1` (stereo partly drawn) [Example 77A, (3RS,5SR)-3-(L-2,6-N-Dibenzyloxycarbonylaminohexanoyl)oxymethyl-4-oxa-1-azabicyclo[3.2.0]heptan-7-one], the IC50 with KB cells was 1.18 µg/mL (≈ 2.19 µM). The “Mortality in 12 days” value in the series with Sarcoma 180 (50 mg/kg/day) was 0/6; in the series with Sarcoma 180 (100 mg/kg/day), 2/6. Moreover, the inhibition in vivo at 50 mg/kg in the series with Sarcoma 180 (setting [3]) is 39.1%. In the series with Sarcoma 180 (setting [4]), the inhibition in vivo at 100 mg/kg is 67.3%.
